# pIC50: −log10 of the molar value.
# System: LG0703-F948-PDC complex spheroid viability
# Experiment: Anticancer human tumor LG0703-F948-PDC patient-derived lung adenocarcinoma cell line growth inhibition [RAS]
# Conditions: for pIC50: curve of first compound; for viability, T/C: stronger effect = lower value
# In short: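 Multi-cell-type spheroids: tumor cells plus HUVEC endothelial cells and mesenchymal stem cells. RAS-pathway inhibitors were combined with targeted agents, each dosed in half-log steps down from clinical Cmax, or from 10 microM when Cmax was unknown.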
# 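Note: spheroids exposed to agents for 7 days.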
# 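Throughout, for viability, T/C: 100% = DMSO vehicle wells.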
smiles,measurement,setting,value
CC1(C)CCC(Nc2ncc(C(F)(F)F)c(-c3c[nH]c4c(P(C)(C)=O)c(C#N)ccc34)n2)CN1 (stereo unspecified) + CCn1c(-c2cc(N3CCN(C)CC3)cnc2C(C)OC)c2c3cc(ccc31)-c1csc(n1)CC(NC(=O)C1CC1C)C(=O)N1CCCC(N1)C(=O)OCC(C)(C)C2,pIC50,second compound 0.000949 µM,< 6.52
same,pIC50,second compound 0.003 µM,> 9.02
same,pIC50,second compound 0.00949 µM,> 9.02
same,pIC50,second compound 0.03 µM,> 9.02
same,pIC50,second compound 0.0949 µM,> 9.02
same,pIC50,second compound 0.3 µM,> 9.02
same,"viability, T/C","second compound 0.000949 µM, first compound 0.000949 µM",70.9%
same,"viability, T/C","second compound 0.000949 µM, first compound 0.003 µM",58.2%
same,"viability, T/C","second compound 0.000949 µM, first compound 0.00949 µM",54.9%
same,"viability, T/C","second compound 0.000949 µM, first compound 0.03 µM",64.2%
same,"viability, T/C","second compound 0.000949 µM, first compound 0.0949 µM",69.8%
same,"viability, T/C","second compound 0.000949 µM, first compound 0.3 µM",66%
same,"viability, T/C","second compound 0.003 µM, first compound 0.000949 µM",50.5%
same,"viability, T/C","second compound 0.003 µM, first compound 0.003 µM",38.7%
same,"viability, T/C","second compound 0.003 µM, first compound 0.00949 µM",43.2%
same,"viability, T/C","second compound 0.003 µM, first compound 0.03 µM",39%
same,"viability, T/C","second compound 0.003 µM, first compound 0.0949 µM",40.1%
same,"viability, T/C","second compound 0.003 µM, first compound 0.3 µM",44.5%
same,"viability, T/C","second compound 0.00949 µM, first compound 0.000949 µM",27.3%
same,"viability, T/C","second compound 0.00949 µM, first compound 0.003 µM",26.4%
same,"viability, T/C","second compound 0.00949 µM, first compound 0.00949 µM",25.1%
same,"viability, T/C","second compound 0.00949 µM, first compound 0.03 µM",31.8%
same,"viability, T/C","second compound 0.00949 µM, first compound 0.0949 µM",26.6%
same,"viability, T/C","second compound 0.00949 µM, first compound 0.3 µM",33.8%
same,"viability, T/C","second compound 0.03 µM, first compound 0.000949 µM",15.2%
same,"viability, T/C","second compound 0.03 µM, first compound 0.003 µM",14.4%
same,"viability, T/C","second compound 0.03 µM, first compound 0.00949 µM",17.2%
same,"viability, T/C","second compound 0.03 µM, first compound 0.03 µM",19.4%
same,"viability, T/C","second compound 0.03 µM, first compound 0.0949 µM",18.3%
same,"viability, T/C","second compound 0.03 µM, first compound 0.3 µM",20.3%
same,"viability, T/C","second compound 0.0949 µM, first compound 0.000949 µM",12.3%
same,"viability, T/C","second compound 0.0949 µM, first compound 0.003 µM",11.9%
same,"viability, T/C","second compound 0.0949 µM, first compound 0.00949 µM",12.3%
same,"viability, T/C","second compound 0.0949 µM, first compound 0.03 µM",12.9%
same,"viability, T/C","second compound 0.0949 µM, first compound 0.0949 µM",14.1%
same,"viability, T/C","second compound 0.0949 µM, first compound 0.3 µM",9.28%
same,"viability, T/C","second compound 0.3 µM, first compound 0.000949 µM",9.53%
same,"viability, T/C","second compound 0.3 µM, first compound 0.003 µM",9.6%
same,"viability, T/C","second compound 0.3 µM, first compound 0.00949 µM",8.69%
same,"viability, T/C","second compound 0.3 µM, first compound 0.03 µM",12.3%
same,"viability, T/C","second compound 0.3 µM, first compound 0.0949 µM",12.7%
same,"viability, T/C","second compound 0.3 µM, first compound 0.3 µM",10.1%
CC1(O)CCCC1n1c(=O)c(C(F)F)cc2cnc(NC3CCN(S(C)(=O)=O)CC3)nc21 (stereo unspecified),"viability, T/C",compound 0.1 µM,94.2% [middle of 4 runs]
same,"viability, T/C",compound 0.316 µM,86.8% [middle of 4 runs]
same,"viability, T/C",compound 1 µM,96% [middle of 4 runs]
CCn1c(-c2cc(N3CCN(C)CC3)cnc2C(C)OC)c2c3cc(ccc31)-c1csc(n1)CC(NC(=O)C1CC1C)C(=O)N1CCCC(N1)C(=O)OCC(C)(C)C2 (stereo unspecified),"viability, T/C",compound 0.003 µM,46.6% [middle of 8 runs]
same,"viability, T/C",compound 0.00949 µM,25.5% [middle of 8 runs]
same,"viability, T/C",compound 0.03 µM,14% [middle of 8 runs]
same,"viability, T/C",compound 0.0949 µM,11.6% [middle of 8 runs]
same,"viability, T/C",compound 0.3 µM,12.3% [middle of 8 runs]
same,IC50,"compound alone, run of 08/26/2024",2.7 nM [middle of 8 runs]

# Reference: PubChem BioAssay AID2060890 (Molecular Pharmacology Branch, DTP, NCI, 2025)
